Reference: doi:10.1101/2024.08.13.607785v1 (biorxiv, 2024)

How the values were obtained:
Design in all cases: species or system mixed lysate of K562, MV4-11, THP-1, NCI-H1155
[1] = target: LIM domain kinase 1 ; LIMK1 ; P53667 (Homo sapiens, UniProt P53667); details: DDA-MS residual binding; binder
[2] = target: T1, Cyclin-G-associated kinase ; GAK ; O14976 (Homo sapiens, UniProt O14976); details: DDA-MS residual binding; binder
T1 sequence (O14976 1-1311): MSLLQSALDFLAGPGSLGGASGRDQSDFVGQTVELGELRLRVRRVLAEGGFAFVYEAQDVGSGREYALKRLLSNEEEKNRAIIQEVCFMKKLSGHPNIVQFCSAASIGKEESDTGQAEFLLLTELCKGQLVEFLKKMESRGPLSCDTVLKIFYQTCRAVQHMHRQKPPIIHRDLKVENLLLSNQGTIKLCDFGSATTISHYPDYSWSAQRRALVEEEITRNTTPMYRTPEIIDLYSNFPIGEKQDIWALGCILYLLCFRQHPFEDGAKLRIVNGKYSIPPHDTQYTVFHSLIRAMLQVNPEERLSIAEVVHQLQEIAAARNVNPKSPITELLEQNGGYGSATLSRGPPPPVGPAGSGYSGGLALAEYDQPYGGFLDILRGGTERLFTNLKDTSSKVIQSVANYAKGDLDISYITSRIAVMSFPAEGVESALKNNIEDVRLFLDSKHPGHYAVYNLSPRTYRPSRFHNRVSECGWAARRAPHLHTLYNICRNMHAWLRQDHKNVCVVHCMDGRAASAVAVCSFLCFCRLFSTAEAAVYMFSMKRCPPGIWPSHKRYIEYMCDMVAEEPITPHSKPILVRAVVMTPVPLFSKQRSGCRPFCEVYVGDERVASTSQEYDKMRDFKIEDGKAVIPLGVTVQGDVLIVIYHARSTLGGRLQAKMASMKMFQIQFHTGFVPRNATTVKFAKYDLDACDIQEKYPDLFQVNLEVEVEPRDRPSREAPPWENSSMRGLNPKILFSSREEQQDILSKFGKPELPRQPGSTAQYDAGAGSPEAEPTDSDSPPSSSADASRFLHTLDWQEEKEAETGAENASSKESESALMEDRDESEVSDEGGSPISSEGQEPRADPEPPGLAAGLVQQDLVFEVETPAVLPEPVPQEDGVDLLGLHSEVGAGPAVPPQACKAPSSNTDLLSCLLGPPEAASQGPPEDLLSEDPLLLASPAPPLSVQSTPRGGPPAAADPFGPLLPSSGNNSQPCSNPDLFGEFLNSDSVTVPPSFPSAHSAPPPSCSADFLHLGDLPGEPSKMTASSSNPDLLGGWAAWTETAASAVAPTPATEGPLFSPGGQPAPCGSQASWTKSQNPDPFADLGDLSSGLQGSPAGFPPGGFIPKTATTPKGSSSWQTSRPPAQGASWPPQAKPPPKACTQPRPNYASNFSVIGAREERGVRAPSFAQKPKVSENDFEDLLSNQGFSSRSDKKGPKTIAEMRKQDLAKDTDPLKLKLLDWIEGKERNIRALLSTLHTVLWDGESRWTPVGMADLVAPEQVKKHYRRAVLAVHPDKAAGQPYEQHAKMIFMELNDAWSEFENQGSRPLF

[3] = target: Ephrin type-A receptor 5 ; EPHA5 ; P54756 (Homo sapiens, UniProt P54756); details: DDA-MS residual binding; binder
[4] = target: Activated CDC42 kinase 1 ; TNK2 ; Q07912 (Homo sapiens, UniProt Q07912); details: DDA-MS residual binding; binder
[5] = target: Tyrosine-protein kinase HCK ; HCK ; P08631 (Homo sapiens, UniProt P08631); details: DDA-MS residual binding; binder
[6] = target: Tyrosine-protein kinase Yes ; YES1 ; P07947 (Homo sapiens, UniProt P07947); details: binder
[7] = target: T2, Tyrosine-protein kinase Tec ; TEC ; P42680 (Homo sapiens, UniProt P42680); details: binder
T2 sequence (P42680 1-631): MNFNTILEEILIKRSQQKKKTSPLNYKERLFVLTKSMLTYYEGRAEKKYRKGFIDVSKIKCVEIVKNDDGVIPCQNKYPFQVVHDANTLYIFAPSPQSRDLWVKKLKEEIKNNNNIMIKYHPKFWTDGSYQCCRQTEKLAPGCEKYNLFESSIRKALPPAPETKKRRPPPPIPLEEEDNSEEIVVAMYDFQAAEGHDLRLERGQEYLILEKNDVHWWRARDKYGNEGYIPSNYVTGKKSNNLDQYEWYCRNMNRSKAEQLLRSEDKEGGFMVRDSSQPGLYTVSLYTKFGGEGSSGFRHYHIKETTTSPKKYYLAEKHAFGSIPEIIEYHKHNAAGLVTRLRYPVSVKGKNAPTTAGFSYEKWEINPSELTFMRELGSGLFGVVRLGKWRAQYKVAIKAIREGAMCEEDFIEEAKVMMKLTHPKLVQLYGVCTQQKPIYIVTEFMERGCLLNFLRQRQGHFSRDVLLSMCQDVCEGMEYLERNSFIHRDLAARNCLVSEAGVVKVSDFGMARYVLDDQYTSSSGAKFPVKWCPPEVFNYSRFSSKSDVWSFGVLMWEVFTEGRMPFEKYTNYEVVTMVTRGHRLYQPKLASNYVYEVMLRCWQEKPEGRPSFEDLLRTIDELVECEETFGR

[8] = target: Receptor-interacting serine/threonine-protein kinase 2 ; RIPK2 ; O43353 (Homo sapiens, UniProt O43353); details: DDA-MS residual binding; binder
Receptor-interacting serine/threonine-protein kinase 2 ; RIPK2 ; O43353, sequence (O43353 whole entry, one chain of several): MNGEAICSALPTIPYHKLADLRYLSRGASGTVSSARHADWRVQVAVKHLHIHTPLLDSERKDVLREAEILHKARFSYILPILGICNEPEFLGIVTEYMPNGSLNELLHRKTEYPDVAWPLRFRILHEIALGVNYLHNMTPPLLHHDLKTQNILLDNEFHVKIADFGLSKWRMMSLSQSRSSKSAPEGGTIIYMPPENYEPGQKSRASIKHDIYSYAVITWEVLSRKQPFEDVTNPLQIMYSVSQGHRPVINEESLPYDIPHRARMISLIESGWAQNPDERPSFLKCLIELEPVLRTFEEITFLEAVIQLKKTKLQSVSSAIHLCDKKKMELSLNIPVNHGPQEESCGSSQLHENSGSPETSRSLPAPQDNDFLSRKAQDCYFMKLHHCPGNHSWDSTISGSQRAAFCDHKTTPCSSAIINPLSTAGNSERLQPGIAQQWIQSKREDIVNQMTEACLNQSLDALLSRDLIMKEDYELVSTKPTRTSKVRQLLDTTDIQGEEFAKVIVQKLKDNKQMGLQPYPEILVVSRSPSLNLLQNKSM

Activated CDC42 kinase 1 ; TNK2 ; Q07912, sequence (Q07912 whole entry): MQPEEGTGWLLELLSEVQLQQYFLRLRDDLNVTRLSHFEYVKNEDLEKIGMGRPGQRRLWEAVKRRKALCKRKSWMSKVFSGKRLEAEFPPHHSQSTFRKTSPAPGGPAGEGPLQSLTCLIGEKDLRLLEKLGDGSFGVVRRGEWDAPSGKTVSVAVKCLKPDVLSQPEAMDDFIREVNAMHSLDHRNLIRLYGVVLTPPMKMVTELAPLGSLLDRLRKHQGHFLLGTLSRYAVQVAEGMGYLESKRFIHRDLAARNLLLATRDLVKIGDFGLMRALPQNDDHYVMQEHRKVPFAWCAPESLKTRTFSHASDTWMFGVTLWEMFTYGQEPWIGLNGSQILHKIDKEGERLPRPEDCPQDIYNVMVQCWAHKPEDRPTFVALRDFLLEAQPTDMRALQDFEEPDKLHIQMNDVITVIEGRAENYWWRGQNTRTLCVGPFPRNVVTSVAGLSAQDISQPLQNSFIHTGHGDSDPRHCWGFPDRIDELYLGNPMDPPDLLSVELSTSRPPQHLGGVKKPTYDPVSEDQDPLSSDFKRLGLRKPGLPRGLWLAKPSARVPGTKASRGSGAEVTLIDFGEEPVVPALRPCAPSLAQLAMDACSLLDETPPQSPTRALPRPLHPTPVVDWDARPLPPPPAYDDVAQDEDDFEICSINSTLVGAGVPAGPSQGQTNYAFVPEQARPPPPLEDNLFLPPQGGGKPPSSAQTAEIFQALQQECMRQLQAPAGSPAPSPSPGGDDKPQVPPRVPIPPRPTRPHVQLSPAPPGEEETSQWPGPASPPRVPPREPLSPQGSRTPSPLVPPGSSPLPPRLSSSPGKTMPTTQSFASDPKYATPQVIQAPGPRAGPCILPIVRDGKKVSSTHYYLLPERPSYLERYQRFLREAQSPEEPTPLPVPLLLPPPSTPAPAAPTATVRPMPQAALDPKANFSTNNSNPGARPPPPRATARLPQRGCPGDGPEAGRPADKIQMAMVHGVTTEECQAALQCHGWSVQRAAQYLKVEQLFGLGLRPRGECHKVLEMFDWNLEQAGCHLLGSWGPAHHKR
Tyrosine-protein kinase HCK ; HCK ; P08631, sequence (P08631 whole entry): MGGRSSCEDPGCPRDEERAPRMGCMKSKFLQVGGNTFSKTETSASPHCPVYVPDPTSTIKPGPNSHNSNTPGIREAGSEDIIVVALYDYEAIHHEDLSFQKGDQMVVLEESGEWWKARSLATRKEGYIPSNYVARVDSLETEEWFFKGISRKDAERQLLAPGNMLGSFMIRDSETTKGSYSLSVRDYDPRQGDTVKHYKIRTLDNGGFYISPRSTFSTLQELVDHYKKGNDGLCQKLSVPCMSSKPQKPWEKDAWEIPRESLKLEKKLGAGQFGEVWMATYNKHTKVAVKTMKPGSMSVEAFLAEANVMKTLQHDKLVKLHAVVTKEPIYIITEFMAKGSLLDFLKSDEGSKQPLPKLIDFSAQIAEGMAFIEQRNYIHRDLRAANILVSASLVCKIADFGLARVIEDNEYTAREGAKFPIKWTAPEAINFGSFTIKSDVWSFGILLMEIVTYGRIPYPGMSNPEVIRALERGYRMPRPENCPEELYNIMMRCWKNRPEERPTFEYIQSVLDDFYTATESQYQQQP
Tyrosine-protein kinase Yes ; YES1 ; P07947, sequence (P07947 whole entry): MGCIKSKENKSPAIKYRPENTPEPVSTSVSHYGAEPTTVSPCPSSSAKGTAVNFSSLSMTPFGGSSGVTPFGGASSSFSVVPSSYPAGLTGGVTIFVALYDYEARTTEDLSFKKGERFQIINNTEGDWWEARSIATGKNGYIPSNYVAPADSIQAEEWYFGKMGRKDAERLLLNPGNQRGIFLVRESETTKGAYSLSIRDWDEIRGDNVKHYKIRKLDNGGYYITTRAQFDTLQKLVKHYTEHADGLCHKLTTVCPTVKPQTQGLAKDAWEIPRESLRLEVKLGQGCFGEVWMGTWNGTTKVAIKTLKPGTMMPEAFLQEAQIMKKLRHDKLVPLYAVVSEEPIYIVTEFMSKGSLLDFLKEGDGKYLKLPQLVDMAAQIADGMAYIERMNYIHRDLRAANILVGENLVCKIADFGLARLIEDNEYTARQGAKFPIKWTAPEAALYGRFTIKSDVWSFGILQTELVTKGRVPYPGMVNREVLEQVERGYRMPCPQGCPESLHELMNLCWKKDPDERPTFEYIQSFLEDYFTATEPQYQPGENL
Ephrin type-A receptor 5 ; EPHA5 ; P54756, sequence (P54756 whole entry): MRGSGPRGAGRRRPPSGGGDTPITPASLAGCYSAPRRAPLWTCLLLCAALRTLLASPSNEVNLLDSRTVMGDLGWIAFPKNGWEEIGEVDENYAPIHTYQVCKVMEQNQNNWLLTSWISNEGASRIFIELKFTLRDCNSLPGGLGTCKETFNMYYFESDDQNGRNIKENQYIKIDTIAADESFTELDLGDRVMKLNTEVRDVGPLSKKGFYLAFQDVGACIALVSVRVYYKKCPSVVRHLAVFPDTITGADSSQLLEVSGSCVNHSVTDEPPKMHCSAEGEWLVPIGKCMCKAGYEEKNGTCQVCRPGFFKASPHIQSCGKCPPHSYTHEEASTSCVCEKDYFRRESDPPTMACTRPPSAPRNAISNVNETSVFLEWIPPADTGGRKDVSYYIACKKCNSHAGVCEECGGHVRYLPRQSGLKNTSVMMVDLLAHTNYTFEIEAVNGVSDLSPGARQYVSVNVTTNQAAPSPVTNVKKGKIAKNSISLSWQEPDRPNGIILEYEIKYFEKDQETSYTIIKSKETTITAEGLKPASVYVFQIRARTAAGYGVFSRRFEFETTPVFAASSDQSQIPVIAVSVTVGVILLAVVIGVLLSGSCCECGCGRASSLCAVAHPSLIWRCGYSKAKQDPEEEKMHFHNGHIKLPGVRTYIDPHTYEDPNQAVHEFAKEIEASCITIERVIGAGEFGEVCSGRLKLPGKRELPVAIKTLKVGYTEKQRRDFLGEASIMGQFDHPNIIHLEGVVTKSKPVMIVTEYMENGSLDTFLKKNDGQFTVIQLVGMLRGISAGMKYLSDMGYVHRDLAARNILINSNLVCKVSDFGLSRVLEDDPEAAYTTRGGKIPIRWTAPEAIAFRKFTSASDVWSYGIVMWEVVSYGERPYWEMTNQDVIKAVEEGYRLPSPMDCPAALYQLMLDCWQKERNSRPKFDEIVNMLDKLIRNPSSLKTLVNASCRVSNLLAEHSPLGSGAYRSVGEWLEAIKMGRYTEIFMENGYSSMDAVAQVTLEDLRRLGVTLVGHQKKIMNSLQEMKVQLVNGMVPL
LIM domain kinase 1 ; LIMK1 ; P53667, sequence (P53667 whole entry, the tested form may be a part): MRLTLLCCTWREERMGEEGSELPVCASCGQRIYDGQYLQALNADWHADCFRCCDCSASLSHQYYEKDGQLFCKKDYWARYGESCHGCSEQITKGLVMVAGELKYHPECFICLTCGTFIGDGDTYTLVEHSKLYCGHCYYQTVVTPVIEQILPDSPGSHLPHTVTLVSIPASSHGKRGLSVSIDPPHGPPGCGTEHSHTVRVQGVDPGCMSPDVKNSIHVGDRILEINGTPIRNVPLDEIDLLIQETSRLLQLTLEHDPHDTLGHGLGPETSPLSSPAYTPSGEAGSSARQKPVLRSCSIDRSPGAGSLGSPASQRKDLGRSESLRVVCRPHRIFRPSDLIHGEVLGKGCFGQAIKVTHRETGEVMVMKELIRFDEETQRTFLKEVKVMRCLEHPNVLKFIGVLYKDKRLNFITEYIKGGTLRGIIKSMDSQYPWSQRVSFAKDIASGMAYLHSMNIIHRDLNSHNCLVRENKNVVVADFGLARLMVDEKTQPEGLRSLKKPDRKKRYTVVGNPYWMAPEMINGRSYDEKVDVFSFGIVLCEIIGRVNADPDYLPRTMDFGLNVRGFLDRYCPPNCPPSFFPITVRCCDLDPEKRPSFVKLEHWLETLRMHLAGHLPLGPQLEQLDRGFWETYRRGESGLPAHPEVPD

- DDA-MS / % Intensity (30 µM/DMSO) [1]: 23.79%
- DDA-MS / % Intensity (30 µM/DMSO) [2]: 1.947%
- DDA-MS / % Intensity (30 µM/DMSO) [3]: 2.68%
- DDA-MS / % Intensity (30 µM/DMSO) [4]: 3.313%
- DDA-MS / % Intensity (30 µM/DMSO) [5]: 2.041%
- DDA-MS / % Intensity (30 µM/DMSO) [6]: 0.4709%
- DDA-MS / % Intensity (30 µM/DMSO) [7]: 2.183%
- DDA-MS / % Intensity (30 µM/DMSO) [8]: 1.02%
Structure (SMILES): Cc1nc(Nc2ncc(C(=O)Nc3c(C)cccc3Cl)s2)cc(N2CCN(CCO)CC2)n1 [dasatinib]
